Patent USRE37410E, “Controlled local delivery of chemotherapeutic agents for treating solid tumors” (priority 1999, dated 2001)
Where two headings read alike, the source gives them in different places.

Key:
9L [1] = format: cell-based; settings: Rattus norvegicus, read-out: LD90 (the source's name)
F98 = format: cell-based; settings: Rattus norvegicus, continuous 6-8 days exposure, read-out: LD90 (the source's name)
[2] = in vivo; cited from earlier work
9L [3] = test: Intracranial local drug delivery by polymer implant in rat glioma model, median survival (Table 1 summary); settings: in vivo
[4] = human, in vivo; cited from earlier work
[5] = Intracerebral distribution of paclitaxel from polymer implant; format: in vivo, rat; settings: for time course of paclitaxel brain concentration: 30 days after implant
Procedure: Animals. Male Fischer 344 rats weighing 200-225 g were obtained from Harlan Sprague-Dawley, Inc. (Indianapolis, Ind.), kept in standard animal facilities with 4 rats/cage, and given free access to Certified Rodent Chow No. 5002 (Ralston Purina Co., St. Louis, Mo.) and to Baltimore city water.
Preparation of the paclitaxel loaded polymer. Polymer discs containing labeled paclitaxel were prepared as above, except that a small amount of ^3 H-labeled paclitaxel (specific activity, 19.3 Ci/mmol; National Cancer Institute) in toluene was added to the initial solution of polymer and paclitaxel in methylene chloride. The polymer-paclitaxel mixture was then dried in a vacuum desiccator and pressed into discs using a table vise calibrated to form a pellet.
Paclitaxel-polymer implantation. The procedure for polymer implantation in the rat has been described by Tamargo, R. J., et al. (Cancer Res. 53:329-333 (1993)), the teachings of which are incorporated herein by reference. Briefly, the heads of anesthetized rats were shaved and prepared aseptically. The skull was exposed with a midline incision, and a 3-mm burr hole was drilled through the skull 5 mm posterior and 3 mm lateral to the bregma. The dura was incised with a microsurgical knife (Edward Weck and Co., Inc., Research Triangle Park, N.C.), and the polymer disc was inserted into the brain parenchyma. The wound was irrigated and closed with surgical clips (Clay Adams, Parsippany, N.J.).
Protocol for intracerebral drug distribution. Twelve rats were given implants of 10-mg discs containing 40% paclitaxel by weight and 0.60 μCi/mg disc weight. At 3, 9, 17, and 30 days postimplantation, groups of 3 rats each were euthanized. The skull was opened and the brain exposed. The polymer disc was removed from the brain in situ. The brain was then removed from the skull and snap frozen in heptane over dry ice. The brain was sectioned in the midline into implant and contralateral hemispheres. Each hemisphere was sectioned coronally at 2-mm intervals by using a tissue blade grid consisting of individual tissue blades arranged in parallel separated by 2-mm metal spacers. Each section was weighed, dissolved in 15 ml Solvable homogenizing solution (New England Nuclear Dupont, Boston, Mass.), and combined with 15 ml Atomlight™ scintillation mixture (New England Nuclear Dupont). The brain samples were counted on a Beckman liquid scintillation counter. Raw counts were corrected for quenching and converted to dpm using a linear regression based on a series of quenched standards.
To convert dpm/mg tissue to paclitaxel concentration, a second experiment was performed. Four rats were given implants of 40% loaded polymer discs with 0.39 μCi/mg. One rat each was sacrificed at 3, 9, 17, and 30 days. The brain was removed and frozen as above. A 2-mm coronal section was taken through the site of the polymer implant. The section was minced and extracted with ethanol. The ethanol fraction was divided in two. […] The Rf value for the paclitaxel was determined and each lane cut into 4 sections: A. origin; B, origin to paclitaxel spot; C. paclitaxel spot; and D. paclitaxel spot to solvent front. The chromatography strips were combined with Atomlight™ mixture and counted in a liquid scintillation counter. […] To determine the efficiency of extraction, the remaining half of the original extract was combined with mixture and counted, and the residual brain tissue was homogenized and counted as above. […]

[6] = cell-culture medium; cited from earlier work
U373 = test: cells; settings: Homo sapiens, U373 MG, read-out: ID90
intracranial gliomas = settings: i.p.; cited from earlier work

SMILES: CC(=O)O[C@H]1C(=O)[C@@]2(C)[C@H]([C@H](OC(=O)c3ccccc3)[C@]3(O)C[C@H](OC(=O)[C@H](O)[C@@H](NC(=O)c4ccccc4)c4ccccc4)C(C)=C1C3(C)C)[C@]1(OC(C)=O)CO[C@@H]1C[C@@H]2O [paclitaxel]
- IC90 (9L [1]; 1 h, 1 h exposure): 890 nM
- IC90 (9L [1]; 24 h, 24 h exposure): 100 nM
- IC90 (F98): 25 nM
- penetration of intact blood-brain barrier [2]: penetrates the intact blood-brain barrier poorly, if at all
- % increase survival (9L [3]): 215%
- Median survival in days, Rx group (9L [3]): 61.5
- clearance [4]: extensive non-renal clearance
- time course of paclitaxel brain concentration [5]: still constant or rising throughout the rat brain 30 days after implant
- time course of paclitaxel brain concentration ([5]; listed as Paclitaxel): increased slightly during the 30 days
- duration of elevated paclitaxel concentration in brain ([5]; after implantation in the rat brain): at least one month
- raw counts tissue bound ([5]; brain, each time point): 31±3%
- raw counts representing parent drug ([5]; brain, each time point, ± standard error of the mean): approximately 56±3%
- hydrolysis to inactive compounds [6]: less than 10%
- IC90 (U373; 1 h): 280 nM
- IC90 (U373; 24 h): 29 nM
- IC90 (U373): 7.2 nM
- increased survival from systemic intraperitoneal injections (intracranial gliomas): no increased survival
